According to the supplement of paper PMC10307832:

What was measured:
Assay in all cases: relative viability (nuclei count vs DMSO), 5 days (fraction); higher = more cells survive
H3255 = tested on: H3255
Outline: (§1)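 Relative viability was taken as the ratio of nuclei in treated wells to nuclei in vehicle wells. Lung cancer cell lines in 1536-well plates received compounds by pin tool one day after seeding, either one drug alone or a fixed anchor-drug dose plus five library-drug doses (not always all listed) in √10 steps. Nuclei were counted on 4× images after 5 days of treatment, and values are medians of duplicate plates.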

201T = tested on: 201T
Outline: as §1

NCI-H1915 = tested on: NCI-H1915
Outline: as §1

HCC-78 = tested on: HCC-78
Outline: as §1

NCI-H647 = tested on: NCI-H647
Outline: as §1

NCI-H2126 = tested on: NCI-H2126
Outline: as §1

LC-2-ad = tested on: LC-2-ad
Outline: as §1

COR-L 105 = tested on: COR-L 105
Outline: as §1

NCI-H2087 = tested on: NCI-H2087
Outline: as §1

HCC-827 = tested on: HCC-827
Outline: as §1

NCI-H23 = tested on: NCI-H23
Outline: as §1

RERF-LC-KJ = tested on: RERF-LC-KJ
Outline: as §1

NCI-H2405 = tested on: NCI-H2405
Outline: as §1

NCI-H2347 = tested on: NCI-H2347
Outline: as §1

ChaGo-K-1 = tested on: ChaGo-K-1
Outline: as §1

NCI-H520 = tested on: NCI-H520
Outline: as §1

NCI-H650 = tested on: NCI-H650
Outline: as §1

LCLC-97TM1 = tested on: LCLC-97TM1
Outline: as §1

NCI-H661 = tested on: NCI-H661
Outline: as §1

EPLC-272H = tested on: EPLC-272H
Outline: as §1

NCI-H1666 = tested on: NCI-H1666
Outline: as §1

PC-14 = tested on: PC-14
Outline: as §1

With `CC(=O)O[C@@]12CO[C@@H]1C[C@H](O)[C@@]1(C)C(=O)[C@H](O)C3=C(C)[C@@H](OC(=O)[C@H](O)[C@@H](NC(=O)OC(C)(C)C)c4ccccc4)C[C@@](O)([C@@H](OC(=O)c4ccccc4)[C@H]21)C3(C)C` [Docetaxel] + Cc1nc(Nc2ncc(C(=O)Nc3c(C)cccc3Cl)s2)cc(N2CCN(CCO)CC2)n1 [Dasatinib] (partner 0.075 µM) the relative viability (H3255; first compound 0.0002 µM) was 0.378, the relative viability (H3255; first compound 0.000632 µM) was 0.439 and the relative viability (H3255; first compound 0.002 µM) was 0.276. The relative viability (H3255; first compound 0.006325 µM) was 0.309, the relative viability (H3255; first compound 0.02 µM) was 0.252 and the relative viability (201T; first compound 0.0002 µM) was 0.562. It also gave a relative viability (201T; first compound 0.000632 µM) of 0.548, a relative viability (201T; first compound 0.002 µM) of 0.52 and a relative viability (201T; first compound 0.006325 µM) of 0.46. The relative viability (201T; first compound 0.02 µM) was 0.282, the relative viability (NCI-H1915; first compound 0.0002 µM) was 0.304 and the relative viability (NCI-H1915; first compound 0.000632 µM) was 0.331. It also gave a relative viability (NCI-H1915; first compound 0.002 µM) of 0.228, a relative viability (NCI-H1915; first compound 0.006325 µM) of 0.153 and a relative viability (NCI-H1915; first compound 0.02 µM) of 0.0717. The relative viability (HCC-78; first compound 0.0002 µM) was 0.352, the relative viability (HCC-78; first compound 0.000632 µM) was 0.3 and the relative viability (HCC-78; first compound 0.002 µM) was 0.235. It also gave a relative viability (HCC-78; first compound 0.006325 µM) of 0.248, a relative viability (HCC-78; first compound 0.02 µM) of 0.3 and a relative viability (NCI-H647; first compound 0.0002 µM) of 0.137. It also gave a relative viability (NCI-H647; first compound 0.000632 µM) of 0.132, a relative viability (NCI-H647; first compound 0.002 µM) of 0.0799 and a relative viability (NCI-H647; first compound 0.006325 µM) of 0.0795. For the same compound, the relative viability (NCI-H647; first compound 0.02 µM) was 0.0407, the relative viability (NCI-H2126; first compound 0.0002 µM) was 0.659 and the relative viability (NCI-H2126; first compound 0.000632 µM) was 0.573. The relative viability (NCI-H2126; first compound 0.002 µM) was 0.363, the relative viability (NCI-H2126; first compound 0.006325 µM) was 0.339 and the relative viability (LC-2-ad; first compound 0.0002 µM) was 0.362. It also gave a relative viability (LC-2-ad; first compound 0.000632 µM) of 0.38, a relative viability (LC-2-ad; first compound 0.002 µM) of 0.28 and a relative viability (LC-2-ad; first compound 0.006325 µM) of 0.207. It also gave a relative viability (COR-L 105; first compound 0.0002 µM) of 0.322, a relative viability (COR-L 105; first compound 0.000632 µM) of 0.288 and a relative viability (COR-L 105; first compound 0.002 µM) of 0.224. The relative viability (COR-L 105; first compound 0.006325 µM) was 0.249, the relative viability (COR-L 105; first compound 0.02 µM) was 0.202 and the relative viability (NCI-H2087; first compound 0.0002 µM) was 0.809. The relative viability (NCI-H2087; first compound 0.000632 µM) was 0.371, the relative viability (NCI-H2087; first compound 0.002 µM) was 0.171 and the relative viability (NCI-H2087; first compound 0.006325 µM) was 0.139. For the same compound, the relative viability (NCI-H2087; first compound 0.02 µM) was 0.102, the relative viability (HCC-827; first compound 0.0002 µM) was 0.237 and the relative viability (HCC-827; first compound 0.000632 µM) was 0.297. For the same compound, the relative viability (HCC-827; first compound 0.002 µM) was 0.289, the relative viability (HCC-827; first compound 0.006325 µM) was 0.22 and the relative viability (HCC-827; first compound 0.02 µM) was 0.155. For the same compound, the relative viability (NCI-H23; first compound 0.0002 µM) was 0.838, the relative viability (NCI-H23; first compound 0.000632 µM) was 0.777 and the relative viability (NCI-H23; first compound 0.002 µM) was 0.483. For the same compound, the relative viability (NCI-H23; first compound 0.006325 µM) was 0.188, the relative viability (NCI-H23; first compound 0.02 µM) was 0.0867 and the relative viability (RERF-LC-KJ; first compound 0.0002 µM) was 0.754. For the same compound, the relative viability (RERF-LC-KJ; first compound 0.000632 µM) was 0.586, the relative viability (RERF-LC-KJ; first compound 0.002 µM) was 0.295 and the relative viability (RERF-LC-KJ; first compound 0.006325 µM) was 0.264. It also gave a relative viability (RERF-LC-KJ; first compound 0.02 µM) of 0.155, a relative viability (NCI-H2405; first compound 0.0002 µM) of 0.2 and a relative viability (NCI-H2405; first compound 0.000632 µM) of 0.178. For the same compound, the relative viability (NCI-H2405; first compound 0.002 µM) was 0.199, the relative viability (NCI-H2405; first compound 0.006325 µM) was 0.149 and the relative viability (NCI-H2405; first compound 0.02 µM) was 0.14. It also gave a relative viability (NCI-H2347; first compound 0.0002 µM) of 0.336, a relative viability (NCI-H2347; first compound 0.000632 µM) of 0.326 and a relative viability (NCI-H2347; first compound 0.002 µM) of 0.242. For the same compound, the relative viability (NCI-H2347; first compound 0.006325 µM) was 0.23, the relative viability (NCI-H2347; first compound 0.02 µM) was 0.241 and the relative viability (ChaGo-K-1; first compound 0.0002 µM) was 0.486. The relative viability (ChaGo-K-1; first compound 0.000632 µM) was 0.429, the relative viability (ChaGo-K-1; first compound 0.002 µM) was 0.404 and the relative viability (ChaGo-K-1; first compound 0.006325 µM) was 0.257. The relative viability (ChaGo-K-1; first compound 0.02 µM) was 0.132, the relative viability (NCI-H520; first compound 0.0002 µM) was 0.186 and the relative viability (NCI-H520; first compound 0.000632 µM) was 0.194. For the same compound, the relative viability (NCI-H520; first compound 0.002 µM) was 0.164, the relative viability (NCI-H520; first compound 0.006325 µM) was 0.159 and the relative viability (NCI-H520; first compound 0.02 µM) was 0.126. The relative viability (NCI-H650; first compound 0.0002 µM) was 0.396, the relative viability (NCI-H650; first compound 0.000632 µM) was 0.361 and the relative viability (NCI-H650; first compound 0.002 µM) was 0.253. For the same compound, the relative viability (NCI-H650; first compound 0.006325 µM) was 0.228, the relative viability (NCI-H650; first compound 0.02 µM) was 0.198 and the relative viability (LCLC-97TM1; first compound 0.0002 µM) was 0.843. It also gave a relative viability (LCLC-97TM1; first compound 0.000632 µM) of 0.762, a relative viability (LCLC-97TM1; first compound 0.002 µM) of 0.675 and a relative viability (LCLC-97TM1; first compound 0.006325 µM) of 0.273. The relative viability (LCLC-97TM1; first compound 0.02 µM) was 0.144, the relative viability (NCI-H661; first compound 0.0002 µM) was 0.836 and the relative viability (NCI-H661; first compound 0.000632 µM) was 0.792. The relative viability (NCI-H661; first compound 0.002 µM) was 0.528, the relative viability (NCI-H661; first compound 0.006325 µM) was 0.395 and the relative viability (NCI-H661; first compound 0.02 µM) was 0.284. It also gave a relative viability (EPLC-272H; first compound 0.0002 µM) of 0.358, a relative viability (EPLC-272H; first compound 0.000632 µM) of 0.235 and a relative viability (EPLC-272H; first compound 0.002 µM) of 0.142. For the same compound, the relative viability (EPLC-272H; first compound 0.006325 µM) was 0.107, the relative viability (EPLC-272H; first compound 0.02 µM) was 0.0615 and the relative viability (NCI-H1666; first compound 0.0002 µM) was 0.684. The relative viability (NCI-H1666; first compound 0.000632 µM) was 0.594, the relative viability (NCI-H1666; first compound 0.002 µM) was 0.465 and the relative viability (NCI-H1666; first compound 0.006325 µM) was 0.414. It also gave a relative viability (NCI-H1666; first compound 0.02 µM) of 0.284, a relative viability (PC-14; first compound 0.0002 µM) of 0.286 and a relative viability (PC-14; first compound 0.000632 µM) of 0.188. For the same compound, the relative viability (PC-14; first compound 0.002 µM) was 0.0514, the relative viability (PC-14; first compound 0.006325 µM) was 0.0304 and the relative viability (PC-14; first compound 0.02 µM) was 0.0231.
